# Measured values reported in patent US20260028330A1, “HETEROARYL CARBOXAMIDE AND RELATED GPR84 ANTAGONISTS AND USES THEREOF” (LIMINAL BIOSCIENCES LIMITED, priority 2022, published 2026).
# Biological target: T1, human GPR84 receptor (Homo sapiens, UniProt Q9NQS5)
# T1 construct: host or cells: HEK293 cells, transient transfection
# Assay: Gαi biosensor BRET assay in transfected HEK293 cells (antagonism of GPR84 agonist ZQ-16)
# Type: cell-based
# Settings: 200 nmol/L ZQ-16; for inhibition at 10 µM / inhibition at 2 µM: HEK293, single concentration; for inhibition at 10 µM: code F = 10 μM; for inhibition at 2 µM: code A = 2 μM
# Description: Background—The following assays can be used for determination of GPR84 activation in living HEK293 cells. The Gαi BRET biosensor (Gagnon et al., 2018; Gales et al., 2006. Nat Struct Mol Biol. 13, 778-86; Saulieres et al., 2012. Nat Chem Biol. 8, 622-30) allows to directly monitor GPR84-mediated activation of Gαi. The Gαi biosensor consists of a Rluc8-tagged Gαi2 subunit, a GFP10-tagged Gγ2 subunit, and an untagged Gβ1. Agonist stimulation and GPR84 activation triggers a physical separation between the RLuc8-Gαi donor and the GFP10-Gγ2 acceptor, resulting in a decrease in BRET signal whose amplitude is correlated to ligand efficacy (Gales et al., 2006). Moreover, signaling functions of GPCRs are tightly regulated by endocytosis, the targeting of receptors to endosomes and their sorting to lysosomes or recycling to the plasma membrane. The early endosomes (EEs) trafficking assay (Namkung et al., 2016. Nat Commun. 7, 12178) uses Rluc8-tagged GPR84 and Renilla GFP (rGFP) attached to the FYVE domain from human endofin/zinc finger FYVE domain-containing protein 16, which binds phosphatidylinositol 3-phosphate in EEs. Agonist stimulation of GPR84-Rluc8 leads to trafficking of the receptor to EEs, and ensuing increase of the donor concentration relative to the rGFP-FYVE acceptor anchored in the same cellular compartment, and thus results in an increase in BRET signal.
# Plasmids—The cDNA clones for human GPR84 receptor, human Gαi2, Gβ1, and Gγ2 were obtained from the cDNA Resource Center (www.cdna.org). GFP10 (F64L, S147P, S202F and H231L variant of Aequorea victoria Green Fluorescent Protein) gBlocks gene fragments (Integrated DNA Technologies, IA) and linker were inserted in frame at the N-terminus of human Gγ2. Rluc8 (A55T, C124A, S130A, K136R, A143M, M185V, M253L, and S287L variant of the Renilla reniformis luciferase) gBlocks gene fragment was inserted with linkers in frame in between residues 91 and 92 of Gα2 or at the C-terminus of GPR84. The FYVE domain from human endofin (residues Q739 to K806) attached in frame at the C terminus of a humanized Renilla GFP (rGFP), were synthesized as gBlocks gene fragments.
# Bioluminescence Resonance Energy Transfer (BRET) Measurement—HEK293 cells were transfected with GPR84-Rluc8 and rGFP-FYVE for the EEs trafficking biosensor or with GPR84, Gαi2-Rluc8, GFP10-Gγ2, and Gβ1 for the Gαi biosensor. The following day, transiently transfected cells were seeded in 96-well white clear bottom microplates coated with poly-D-lysine and left in culture for 24 hours. Cells were washed once with Tyrode's buffer (140 mmol/L NaCl, 1 mmol/L CaCl2, 2.7 mmol/L KCl, 0.49 mmol/L MgCl2, 0.37 mmol/L NaH2PO4, 5.6 mmol/L glucose, 12 mmol/L NaHCO3, and 25 mmol/L HEPES, pH 7.5) before performing assays in Tyrode's buffer. Test compounds were incubated with cells for 5 (Gui) or 15 (EEs) minutes at 37° C. before addition of 200 nmol/L of the GPR84 agonist ZQ-16 (2-(Hexylthio)-6-hydroxy-4(3H)-pyrimidinone) for 5 minutes at room temperature (Gui) or 30 minutes at 37° C. (EEs). The Rluc8 substrate coelenterazine 400A (Prolume, Lakeside, AZ) was added at a final concentration of 5 μmol/L and BRET readings were collected using an Infinite M1000 microplate reader (Tecan, Morrisville, NC). BRET^2 readings between Rluc8 and GFP10 or rGFP were collected by sequential integration of the signals detected in the 370 to 450 nm (Rluc8) and 510 to 540 nm (GFP10, rGFP) windows. The BRET signal was calculated as the ratio of light emitted by acceptor (GFP10, rGFP) over the light emitted by donor (Rluc8). The values were corrected to net BRET by subtracting the background BRET signal obtained in cells transfected with Rluc8 constructs alone. Ligand-promoted net BRET values were calculated by subtracting vehicle-induced net BRET from ligand-induced net BRET.
# T1 sequence (Q9NQS5 whole entry): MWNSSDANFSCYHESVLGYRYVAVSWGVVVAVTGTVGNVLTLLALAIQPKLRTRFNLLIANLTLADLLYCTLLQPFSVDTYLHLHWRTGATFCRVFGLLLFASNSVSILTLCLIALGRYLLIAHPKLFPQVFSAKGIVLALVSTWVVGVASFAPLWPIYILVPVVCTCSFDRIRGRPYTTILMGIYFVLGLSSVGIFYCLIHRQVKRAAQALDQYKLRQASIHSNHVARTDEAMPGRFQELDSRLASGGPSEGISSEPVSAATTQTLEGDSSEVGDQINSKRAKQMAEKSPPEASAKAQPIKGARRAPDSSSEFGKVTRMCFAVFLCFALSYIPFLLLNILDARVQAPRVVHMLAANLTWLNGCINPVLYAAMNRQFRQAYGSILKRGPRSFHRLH
Compound,IC50 [nM],inhibition at 10 µM [%],inhibition at 2 µM [%]
Cc1cc(C#CC2CC2)cc(C)c1N(C)C(=O)c1cn(CC2OCC3(CC3)CO2)nn1 [Compound I-60],300 to 1000,> 75,–
O=C(Nc1cccc(C#CC2CC2)c1)c1cn(CC2OCC3(CC3)CO2)nn1 [Compound I-97],–,≤ 25,–
CN(C(=O)c1cn(CC2OCC3(CC3)CO2)nn1)c1cc(C#CC2CC2)ccc1O [Compound I-49],–,25 to 50,–
"Cc1ccc(C#CC2CC2)cc1N(C)C(=O)c1ccc(OCC(=O)N(C)C)nc1C [Compound I-2, N-(5-(cyclopropylethynyl)-2-methylphenyl)-6-(2-(dimethylamino)-2-oxoethoxy)-N,2-dimethylnicotinamide]",–,≤ 25,–
CN(C(=O)c1cn(CC2OCC3(CC3)CO2)nn1)c1ccc(C#CC2CC2)cc1F [Compound I-29],≤ 300,–,> 75
Cc1cc(C#CC2CC2)cc(F)c1N(C)C(=O)c1cn(CC2OCC3(CC3)CO2)nn1 [Compound I-32],≤ 300,> 75,–
Cc1cc(OCC(=O)N(C)C)ccc1C(=O)N(C)c1cc(C#CC2CC2)ccc1C [Compound I-27],–,≤ 25,–
Cc1cc(C#CC2CC2)ccc1C(=O)Nc1cn(CC2OCC3(CC3)CO2)nn1 [Compound I-20],–,≤ 25,–
"Cc1cc(C#CC2CC2)cnc1CN(C)c1cn(CC2OCC3(CC3)CO2)nn1 [Compound I-5, 1-((5,7-dioxaspiro[2.5]octan-6-yl)methyl)-N-((5-(cyclopropylethynyl)-3-methylpyridin-2-yl)methyl)-N-methyl-1H-1,2,3-triazol-4-amine]",300 to 1000,> 75,–
O=C(c1cn(CC2OCC3(CC3)CO2)nn1)N(c1ccc(C#CC2CC2)cc1Br)C1CC1 [Compound I-93],≤ 300,–,> 75
CN(c1ccc(C#CC2CC2)cc1)c1cn(CC2OCC(C)(C)CO2)nn1 [Compound I-82],–,≤ 25,–
Cc1ccc(C#CC2CC2)c2c1N(C(=O)c1cn(CC3OCC4(CC4)CO3)nn1)CCC2 [Compound I-48],–,> 75,–
O=C(c1cn(CC2OCC3(CC3)CO2)nn1)N1CCc2c(C#CC3CC3)cccc21 [Compound I-25],–,–,≤ 25
Cc1c(N(C)C(=O)c2ccc(C#CC3CC3)cc2)nnn1CC1OCC2(CC2)CO1 [Compound I-61],–,50 to 75,–
Cc1cc(C#CC2CC2)ccc1N(C(=O)c1cn(CC2OCC3(CC3)CO2)nn1)C1CC1 [Compound I-83],≤ 300,–,> 75
Cc1cc(C#CC2CC2)cc2c1C(N(C)c1cn(CC3OCC4(CC4)CO3)nn1)CC2 (stereo not drawn) [Compound I-53],–,25 to 50,–
Cc1ccc(C#CC2CC2)cc1N(C)C(=O)c1cn(CCC(=O)N(C)C)nn1 [Compound I-24],–,≤ 25,–
CN(C(=O)c1cn(CC2OCC3(CC3)CO2)cn1)c1ccc(C#CC2CC2)cc1F [Compound I-59],≤ 300,–,> 75
Cc1ccc(C#CC2CC2)cc1NC(=O)c1cn(CC2OCC3(CC3)CO2)nn1 [Compound I-14],–,≤ 25,–
Cc1ccc(C#CC2CC2)cc1N(C)C(=O)c1ncc(OCC(=O)N(C)C)cc1C [Compound I-34],–,≤ 25,–
Cc1ccc(C#CC2CC2)nc1N(C)C(=O)c1cn(CC2OCC3(CC3)CO2)nn1 [Compound I-36],–,25 to 50,–
Cc1ccc(C#CC2CC2)cc1N(C(=O)c1cn(CC2OCC3(CC3)CO2)nn1)C(C)C [Compound I-86],≤ 300,–,> 75

Compound,IC50 [nM],inhibition at 10 µM [%],inhibition at 2 µM [%]
"CN(C)c1cc(C#CC2CC2)ccc1N(C)C(=O)c1cn(CC2OCC3(CC3)CO2)nn1 [Compound I-1, 1-((5,7-dioxaspiro[2.5]octan-6-yl)methyl)-N-(4-(cyclopropylethynyl)-2-(dimethylamino)phenyl)-N-methyl-1H-1,2,3-triazole-4-carboxamide]",300 to 1000,> 75,–
CN(C(=O)c1cn(CC2OCC3(CC3)CO2)nn1)c1cccc(C#CC2CC2)c1 [Compound I-23],300 to 1000,> 75,–
Cc1cc(F)c(C#CC2CC2)cc1N(C)C(=O)c1cn(CC2OCC3(CC3)CO2)nn1 [Compound I-100],≤ 300,–,> 75
O=C(Nc1cc(C#CC2CC2)ccc1Cl)c1cn(CC2OCC3(CC3)CO2)nn1 [Compound I-96],–,≤ 25,–
O=C(Nc1cc(C#CC2CC2)ccc1C1CC1)c1cn(CC2OCC3(CC3)CO2)nn1 [Compound I-45],–,≤ 25,–
Cc1cc(C#CC2CC2)ccc1N(C(=O)c1cn(CC2OCC3(CC3)CO2)nn1)C(C)C [Compound I-84],≤ 300,–,> 75
"Cc1ccc(C#CC2CC2)cc1CN(C)c1cn(CC2OCC3(CC3)CO2)nn1 [Compound I-10, 1-((5,7-dioxaspiro[2.5]octan-6-yl)methyl)-N-(5-(cyclopropylethynyl)-2-methylbenzyl)-N-methyl-1H-1,2,3-triazol-4-amine]",–,25 to 50,–
Cc1ccc(C#CC2CC2)cc1Nc1cn(CC2OCC3(CC3)CO2)cn1 [Compound I-15],–,≤ 25,–
CCc1ccc(C#CC2CC2)cc1N(C)C(=O)c1cn(CC2OCC3(CC3)CO2)nn1 [Compound I-104],300 to 1000,> 75,–
Cc1cc(C#CC2CC2)ccc1NC(=O)c1cn(CC2OCC3(CC3)CO2)nn1 [Compound I-18],–,≤ 25,–
Cc1ccc(C#CC2CC2)cc1C(=O)N(C)c1cn(CC2OCC3(CC3)CO2)nn1 [Compound I-16],–,≤ 25,–
Cc1ccc(N(C)C(=O)c2cn(CC3OCC4(CC4)CO3)nn2)nc1C#CC1CC1 [Compound I-50],–,≤ 25,–
CN(Cc1ccc(C#CC2CC2)cc1C1CC1)c1cn(CC2OCC3(CC3)CO2)nn1 [Compound I-51],–,> 75,–
Cc1cc(C#CC2CC2)ccc1N(C)C(=O)c1cn(CC2OCC3(CC3)CO2)nn1 [Compound I-21],≤ 300,> 75,–
Cc1cc(C#CC2CC2)ccc1/N=C(\OC(C)C)c1cn(CC2OCC3(CC3)CO2)nn1 [Compound I-85],–,25 to 50,–
"Cc1ccc(C#CC2CC2)c2c1N(C(=O)c1cn(CC3OCC4(CC4)CO3)nn1)CC2 [Compound I-4, (1-((5,7-dioxaspiro[2.5]octan-6-yl)methyl)-1H-1,2,3-triazol-4-yl)(4-(cyclopropylethynyl)-7-methylindolin-1-yl)methanone]",–,≤ 25,–
CN(C(=O)c1cn(CC2OCC3(CC3)CO2)nn1)c1c(F)cc(C#CC2CC2)cc1F [Compound I-43],≤ 300,–,> 75
CN(C(=O)c1cn(CC2OCC3(CC3)CO2)nn1)c1cc(C#CC2CC2)ccc1C1CC1 [Compound I-47],300 to 1000,> 75,–
"Cc1ccc(C#CC2CC2)cc1NCc1cn(CC2OCC3(CC3)CO2)nn1 [Compound I-11, N-((1-((5,7-dioxaspiro[2.5]octan-6-yl)methyl)-1H-1,2,3-triazol-4-yl)methyl)-5-(cyclopropylethynyl)-2-methylaniline]",–,–,≤ 25
CN(C)c1ccc(C#CC2CC2)cc1NC(=O)c1cn(CC2OCC3(CC3)CO2)nn1 [Compound I-102],–,≤ 25,–
Cc1ccc(C#CC2CC2)c(F)c1N(C)C(=O)c1cn(CC2OCC3(CC3)CO2)nn1 [Compound I-37],≤ 300,> 75,–
